Results from PMC4503722, “Novel Phenotypic Outcomes Identified for a Public Collection of Approved Drugs from a Publicly Accessible Panel of Assays” (PLoS ONE, 2015).
Read-outs that look alike come from different tables or passages of the source.

Experiments:
SNU-C1 = test: cells; format: cell-based
SW480 = test: cells; format: cell-based; details: for IC50: Homo sapiens
HT-29 = test: cells; format: cell-based
RKO = test: cells; format: cell-based
DLD-1 = test: cells; format: cell-based; details: for IC50: Homo sapiens, DLD-1, 72 h, Table 2, 72 h, Cell TiterGlo, non-adherent, 20 coded, read-out: DLD-1 viab. IC50
INS-1E cells [1] = test: cells; format: cell-based, rat; details: for EC50: Rattus norvegicus, INS-1E
INS-1E cells [2] = format: cell-based, rat; details: for insulin secretion at low glucose (in words): INS-1E
[3] = tested on: HCT116 cells treated with a GSK3β inhibitor; test: cells; format: cell-based; details: for IC50: Homo sapiens, HCT-116, read-out: HCT-116 (GSK3β) viab. IC50, Table 2, GSK3β inhibitor LY2090314 20 nM, 72 h, Cell TiterGlo, 20 coded
HCT116 = test: cells; format: cell-based; details: for IC50: Homo sapiens, HCT-116, 72 h, read-out: HCT-116 viab. IC50, Table 2, basal, 72 h, Cell TiterGlo, non-adherent, 20 coded
[4] = tested on: endothelial tube formation in co-cultures of ECFCs and ADSCs treated with VEGF; test: cells; format: cell-based, human; details: Homo sapiens, Table 2; primary assay tube area; 20 = no response in concentration-response, 20.1 = inactive in single concentration testing; read-out: Anti-Angio IC50
NCI-H716 cells = test: cells; format: cell-based, Human; details: Homo sapiens, NCI-H716; read-out: GLP1 sec. EC50
[5] = tested on: nuclear β-catenin in C2C12 cells; test: cells; format: cell-based; details: Mus musculus, C2C12, Table 2; C2C12; […]; 20 / 20.1 coded; read-out: Wnt pot. EC50
HeLa cells = test: cells; format: cell-based; details: Table 2; HeLa; […]; 20 / 20.1 coded
[6] = SW480, 72 h, Table 2, 72 h, Cell TiterGlo, non-adherent, 20 coded, read-out: SW480 viab. IC50
[7] = 5 mM glucose, read-out: insulin secretion EC50
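Wherever 5mMGluc INS1E SecretionMod IC50/EC50 is given: secreted insulin quantified by homogeneous immunoassay.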

## Cc1c(C)n(Cc2ccccc2)c2ccc(C(=O)OCCN(C)C)cc12 [NCGC00160412-04]
SNU-C1
  Basal_Viability ATP SNU-C1 IC50/EC50: 11.9645 µM
SW480
  Basal_Viability ATP SW480 IC50/EC50: 8.7786 µM
HT-29
  Basal_Viability ATP HT-29 IC50/EC50: > 6.6667 µM
RKO
  Basal_Viability ATP RKO IC50/EC50: 12.7694 µM
DLD-1
  Basal_Viability ATP DLD-1 IC50/EC50: 11.2721 µM
INS-1E cells [1]
  5mMGluc_INS1E SecretionMod IC50/EC50: 3.845 µM
INS-1E cells [2]
  0.1mMGluc_INS1E SecretionMod Act IC50/EC50: 14.9139 µM
[3]
  GSK3b inh pretreated_Viability ATP HCT116 IC50/EC50: 5.474 µM
HCT116
  Basal_Viability ATP HCT116 IC50/EC50: 11.7611 µM

## CC(C)(Cc1c[nH]c2ccccc12)NCC(O)COc1ccccc1C#N (stereo not drawn) [NCGC00167817-02]
INS-1E cells [1]; assay number 8, 5 mM glucose
  5mMGluc_INS1E SecretionMod IC50/EC50: 15.0119 µM
INS-1E cells [2]; assay number 9, 0.1 mM glucose
  0.1mMGluc_INS1E SecretionMod Act IC50/EC50: > 33.33 µM

## CN(C)CCC[C@@]1(c2ccc(F)cc2)OCc2cc(C#N)ccc21.O=C(O)C(=O)O [NCGC00178555-02]
INS-1E cells [1]; assay number 8, 5 mM glucose
  5mMGluc_INS1E SecretionMod IC50/EC50: 5.447 µM
INS-1E cells [2]; assay number 9, 0.1 mM glucose
  0.1mMGluc_INS1E SecretionMod Act IC50/EC50: > 33.33 µM

## CCCCN1CCCCC1C(=O)Nc1c(C)cccc1C (stereo not drawn) [NCGC00178579-04]
INS-1E cells [1]; assay number 8, 5 mM glucose
  5mMGluc_INS1E SecretionMod IC50/EC50: 27.1706 µM
INS-1E cells [2]; assay number 9, 0.1 mM glucose
  0.1mMGluc_INS1E SecretionMod Act IC50/EC50: > 33.33 µM

## O=C(NN1CCCC1)NS(=O)(=O)c1ccc(Cl)cc1 [NCGC00182989-01]
INS-1E cells [1]
  5mMGluc_INS1E SecretionMod IC50/EC50: 14.8718 µM
INS-1E cells [2]
  0.1mMGluc_INS1E SecretionMod Act IC50/EC50: > 33.33 µM

## CC(C)(C)c1nnc(NS(=O)(=O)c2ccccc2)s1 [NCGC00182991-01]
INS-1E cells [1]; assay number 8, 5 mM glucose
  5mMGluc_INS1E SecretionMod IC50/EC50: 13.1318 µM
INS-1E cells [2]; assay number 9, 0.1 mM glucose
  0.1mMGluc_INS1E SecretionMod Act IC50/EC50: > 33.33 µM

## Oc1ccc(CCNCCCCCCNCCc2ccccc2)cc1O [NCGC00184998-02]
INS-1E cells [1]; assay number 8, 5 mM glucose
  5mMGluc_INS1E SecretionMod IC50/EC50: > 33.33 µM
INS-1E cells [2]; assay number 9, 0.1 mM glucose
  0.1mMGluc_INS1E SecretionMod Act IC50/EC50: > 33.33 µM

## Cl.Nc1c2c(nc3c1CCC3)CCCC2.O [NCGC00263455-01]
INS-1E cells [1]; assay number 8, 5 mM glucose
  5mMGluc_INS1E SecretionMod IC50/EC50: 11.7012 µM
INS-1E cells [2]; assay number 9, 0.1 mM glucose
  0.1mMGluc_INS1E SecretionMod Act IC50/EC50: > 33.33 µM

## Cc1cc2c(OCC(CNC(C)(C)C)OC(=O)c3ccccc3)cccc2[nH]1 (stereo not drawn) [NCGC00263654-01]
INS-1E cells [1]; assay number 8, 5 mM glucose
  5mMGluc_INS1E SecretionMod IC50/EC50: 14.6026 µM
INS-1E cells [2]; assay number 9, 0.1 mM glucose
  0.1mMGluc_INS1E SecretionMod Act IC50/EC50: > 33.33 µM

## COc1ccc(Cl)cc1C(=O)NCCc1ccc(S(=O)(=O)NC(=O)NC2CCCCC2)cc1 [glibenclamide, reference compound]
SW480; [6]
  IC50: 2900 nM
SW480; SW480, basal, SW480, read-out: Basal_Viability ATP SW480
  IC50: 2920 nM
[4]
  IC50: > 10 µM
DLD-1
  IC50: > 20 µM
INS-1E cells [1]; read-out: Ins. sec. EC50
  EC50: 2 nM
INS-1E cells [1]; read-out: Insulin Secretion
  EC50: 2.47 nM
INS-1E cells [1]; [7]
  EC50: 2.5 nM
INS-1E cells [2]; 0.1 mM glucose
  insulin secretion at low glucose (in words): stimulated insulin secretion at low glucose concentrations
NCI-H716 cells
  EC50: > 10 µM
[5]
  EC50: > 10 µM
[3]
  IC50: > 20 µM
HCT116
  IC50: > 20 µM

## CCOc1cc(CC(=O)N[C@@H](CC(C)C)c2ccccc2N2CCCCC2)ccc1C(=O)O [repaglinide, reference compound]
HeLa cells
  G2/M IC50 / EC50: 20.1
SW480; [6]
  IC50: > 20000 nM
[4]
  IC50: > 10 µM
DLD-1
  IC50: > 20 µM
INS-1E cells [1]; read-out: Ins. sec. EC50
  EC50: 30 nM
INS-1E cells [1]; [7]
  EC50: 27 nM
INS-1E cells [2]; 0.1 mM glucose
  insulin secretion at low glucose (in words): stimulated insulin secretion at low glucose concentrations
NCI-H716 cells
  EC50: > 10 µM
[5]
  EC50: > 10 µM
[3]
  IC50: > 20 µM
HCT116
  IC50: > 20 µM
